The subject of one data set is Phytophthora infestans. The data set can be described thus: whole plant or invertebrate. Format: in vivo. The settings on record: in Solanum lycopersicum, 168 h, read-out: Tomato Late Blight, % Control.
In the next data set the test system is Alternaria solani. In words: Tomato Early Blight control. The data set is classed as in vivo. Conditions: 250-ppm spray, tomato seedlings, inoculated 1 day later. The procedure: Compounds of the invention were tested for the control of the Tomato Early Blight organism, Alternaria solani conidia. […] The tomato plans were sprayed with a 250-ppm solution of the test compound in an acetone-and-water solution containing a small amount of a non-ionic emulsifier. […] Percent disease control was based on the percent disease development on untreated check plants.

The test system of the next data set is Erysiphe polygoni. In words: Powdery Mildew control on bean seedlings. The data set is classed as in vivo. Conditions: 250-ppm spray, about 10 days. The text has this: The powdery mildew test was made using bean seedlings (var. Bountiful) with well-developed primary leaves. The pathogen was Erysiphe polygoni. The bean seedlings were sprayed with a 250-ppm solution of the test compound in an acetone-water mixture containing a nonionic emulsifer. The treated plants were inoculated one day after spray application of the test compound with the pathogen. […] The rate of infection on the leaves was made after about 10 days. The percent disease control provided by a given test compound was based on the disease reduction relative to untreated check plants.

The subject of another data set is Aspergillus niger. In words: Mycelia Inhibition. The data set is classed as cell-based. Conditions: 25° C., 24 hours. The procedure:
(§1) The compounds of the present invention were evaluated for fungicidal effectiveness by means of a mycelial inhibition test. This test is designed to measure the fungitoxic acitvity of fungicidal chemicals in terms of their degree of inhibition of mycelium growth. Each compound to be tested was dissolved in acetone to 500 ppm concentration. Paper strips were innoculated with the particular mycelium growth by covering the paper with a potato dextrose broth culture of mycelial suspension. The innoculated papers were then placed on potato dextrose agar plates and sprayed by means of a micro sprayer with the fungicidal solution. The treated paper strips were incubated at 25° C. and data is taken after 24 hours. Fungicidal activities are measured by a zone of inhibited mycelial growth from the center of the paper strip. The effectiveness of the compounds tested for fungicidal activity is reported in Table VI in terms of the microgram/cm^2 for 99% control of the fungus.

In data set [1] the test system is Botrytis cinerea. The data set can be described thus: Mycelia Inhibition. Format: cell-based. The settings on record: 25° C., 24 hours. The method, then:
as §1

A further data set relates to Fusarium moniloforma. The data set can be described thus: Mycelia Inhibition. The data set is classed as cell-based. Conditions: 25° C., 24 hours. The procedure: as §1
Another data set has as its system Rhizoctonia solani. In words: Mycelia Inhibition. The data set is classed as cell-based. Conditions: 25° C., 24 hours. The procedure: as §1
Data set [2] has as its system Crabgrass (Digitaria sanguinalis). In words: Post-emergent herbicidal test. Format: in vivo. Conditions: post-emergence, 504 h, 33 mcg/cm^2, 3 weeks, scale 0 (no phytotoxicity) to 100 (complete kill), read-out: Herbicidal Effectiveness (C). The procedure: (§2) Post-emergent herbicidal tests with representative compounds of this invention were made using the following method.
(§3) An acetone solution of the test compound was prepared by mixing 750 mg of the compound, 220 mg of a nonionic surfactant and 25 ml of acetone. This solution was added to approximately 125 ml of water containing 156 mg of surfactant.
(§4) This test solution was uniformly sprayed on 2 similar pots of 24-day-old plants (approximately 15 to 25 plants per pot) at a dose of 33 mcg/cm^2. After the plants had dried, they were placed in a greenhouse and then watered intermittently at their bases, as needed. The plants were observed periodically for phytotoxic effects and physiological and morphological responses to the treatment. After 3 weeks, the herbicidal effectiveness of the compound was rated based on these observations. A 0-to-100 scale was used, 0 representing no phytotoxicity and 100 representing complete kill.

The subject of data set [3] is Lambsquarter (Chenopodium album). The data set can be described thus: Post-emergent herbicidal test. Format: in vivo. Conditions: post-emergence, 504 h, 33 mcg/cm^2, 3 weeks, scale 0 (no phytotoxicity) to 100 (complete kill), read-out: Herbicidal Effectiveness (P). The method, then:
as §2, §3, §4

Data set [4] concerns Mustard (Brassica arvensis). The data set can be described thus: Post-emergent herbicidal test. The data set is classed as in vivo. Conditions: post-emergence, 504 h, 33 mcg/cm^2, 3 weeks, scale 0 (no phytotoxicity) to 100 (complete kill), read-out: Herbicidal Effectiveness (L). The procedure: as §2, §3, §4
Data set [5] concerns Pigweed (Amaranthus retroflexus). In words: Post-emergent herbicidal test. The data set is classed as in vivo. Conditions: post-emergence, 504 h, 33 mcg/cm^2, 3 weeks, scale 0 (no phytotoxicity) to 100 (complete kill), read-out: Herbicidal Effectiveness. The procedure:
as §2, §3, §4

The test system of data set [6] is Watergrass (Echinochloa Crusgalli). The data set can be described thus: Post-emergent herbicidal test. The data set is classed as in vivo. Conditions: Echinochloa crus-galli, post-emergence, 504 h, 33 mcg/cm^2, 3 weeks, scale 0 (no phytotoxicity) to 100 (complete kill), read-out: Herbicidal Effectiveness (W). The procedure: as §2, §3, §4
The next data set relates to Wild Oats (Avena fatua). The data set can be described thus: Post-emergent herbicidal test. Format: in vivo. The settings on record: post-emergence, 504 h, 33 mcg/cm^2, 3 weeks, scale 0 (no phytotoxicity) to 100 (complete kill), read-out: Herbicidal Effectiveness (O). The procedure: as §2, §3, §4
Data set [7] has as its system two spotted-mites (Tetramuchus urticae). The data set can be described thus: Mite control test, adult mites. The data set is classed as in vivo. The settings on record: 40-ppm leaf dip, adult mortality one day after treatment; 1440 min. The method, then:
(§5) Compounds of the invention were tested for the control mites and mite eggs by the following procedure. Pinto bean leaves were invested with two spotted-mites (Tetramuchus urticae). The mites were then allowed to lay eggs on the leaves. After 48 hours, the leaves were dipped into a water/acetone solution containing a small amount of a non-ionic surfactant and 40-ppm of the test compound. The treated leaves were then maintained at 85° F. One day after treatment, the mortality of adult mites was determined, and 7 days after treatment, the egg mortality (non-hatching eggs) was determined.

Data set [8] relates to mite eggs (Tetramuchus urticae). The data set can be described thus: Mite control test, mite eggs. Format: in vivo. The settings on record: 40-ppm leaf dip, egg mortality (non-hatching eggs) 7 days after treatment. The method, then: as §5
For data set [9], the system named is Botrytis cinerea. The data set can be described thus: Botrytis cinerea control on detached horsebean leaves. The data set is classed as in vivo. The settings on record: 40-ppm solution, dipped horsebean leaves, 3 to 5 days, 23.5° C. The procedure:
The leaves were dipped into a 40-ppm solution of the test compound in acetone and water containing a small amount of a nonionic emulsifier, then taken out and placed in a petri plate lined with two pieces of filter paper. The leaves were allowed to dry while the filter paper was kept moist by adding water as required. The treated leaves were then inoculated with the spores of Botrytis cinerea fungus grown on potato dextrose agar. The plate was covered after inoculation and kept at 23.5° C. The filter-paper lining of the plate was kept saturated with water throughout the test. The rate of disease incidence was determined in 3 to 5 days, when the disease symptoms were fully evident on non-treated check leaves. The percentage disease control provided by the test compound was calculated as the percentage disease reduction based on the non-treated check leaves.

The structures appear in SMILES notation.

These results are taken from patent US4119722A, “Method for control of fungi using 4-halo-5-aryl-1,2,3,-dithiazoles” (Chevron Research Company, priority 1977, dated 1978).

Consider `Cc1c(Cl)cccc1N=c1ssnc1Cl` [Compound 21], for which the pest or weed control at 250 µg/mL in the data set on Phytophthora infestans turned out to be 63%. Also, the “Tomato Early Blight, % Control” value with Alternaria solani is 44%. In addition, the “Powdery Mildew % Control” value in the data set on Erysiphe polygoni came to 100%. Also, the “Mycelia Inhibition, for 99% control (A)” value with Aspergillus niger is more than 1.7 micrograms/cm^2. Besides, the “Mycelia Inhibition, for 99% control (B)” value with Botrytis cinerea [1] is 1.3 micrograms/cm^2. Further, the “Mycelia Inhibition, for 99% control (F)” value in the data set with Fusarium moniloforma was more than 1.7 micrograms/cm^2. Further, the “Mycelia Inhibition, for 99% control (R)” value in the data set on Rhizoctonia solani is listed as 1.1 micrograms/cm^2. The pest or weed control at 33 µg/cm2 was 0% in data set [2]; 20% in data set [3]; 45% in data set [4]; 50% in data set [5]; 15% in data set [6]; 0% in the data set with Wild Oats (Avena fatua). For the same compound, in [7], the “Mite Control, %” value came out at 90%. Further, the “Mite Eggs Control, %” value in data set [8] amounted to 99%.
As to `Cc1cc(Cl)ccc1N=c1ssnc1Cl` [Compound 4, 4-chloro-5-(2-methyl-4-chlorophenylimino)-1,2,3-dithiazole], in the data set on Botrytis cinerea [9], the “percentage disease control (Botrytis cinerea)” value turned out to be 92%. In addition, the “Powdery Mildew % Control” value in the data set on Erysiphe polygoni is reported as 100%. Further, the “Mycelia Inhibition, for 99% control (A)” value in the data set with Aspergillus niger was more than 1.7 micrograms/cm^2. In addition, in the data set with Fusarium moniloforma, the “Mycelia Inhibition, for 99% control (F)” value is listed as more than 1.7 micrograms/cm^2. Also, the “Mycelia Inhibition, for 99% control (R)” value in the data set with Rhizoctonia solani is on record as 0.63 micrograms/cm^2. The pest or weed control at 33 µg/cm2 came out at 20% in [2]; 85% in [3]; 70% in [4]; 70% in [5]; 30% in [6]; 20% in the data set on Wild Oats (Avena fatua). For the same compound, the “Mite Control, %” value in [7] turned out to be 94%. Besides, the “Mite Eggs Control, %” value in data set [8] is on record as 100%.
